Test results taken from PubChem BioAssay (NCI).
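Protocol summary: plate cells (96-well), add compound at 5 concentrations, incubate 48 h, interpolate endpoints linearly. TGI: total growth inhibition.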

What was measured:
Assay in all cases: NCI anticancer screen, dose series, 48 h
SF-268 CNS = test system: SF-268 CNS
U251 CNS = test system: U251 CNS
M14 melanoma = test system: M14 melanoma
HCT-116 colon = test system: HCT-116 colon
EKVX NSCLC = test system: EKVX NSCLC
SW-620 colon = test system: SW-620 colon
MDA-MB-435 = test system: MDA-MB-435
HCT-15 colon = test system: HCT-15 colon
SF-539 CNS = test system: SF-539 CNS
CAKI-1 renal = test system: CAKI-1 renal
NCI/ADR-RES ovarian = test system: NCI/ADR-RES ovarian
RPMI-8226 leukemia = test system: RPMI-8226 leukemia
SNB-75 CNS = test system: SNB-75 CNS
786-0 renal = test system: 786-0 renal
HOP-62 NSCLC = test system: HOP-62 NSCLC
MALME-3M melanoma = test system: MALME-3M melanoma
SK-MEL-2 melanoma = test system: SK-MEL-2 melanoma
CCRF-CEM leukemia = test system: CCRF-CEM leukemia
SR leukemia = test system: SR leukemia
HT29 colon = test system: HT29 colon
HS 578T breast = test system: HS 578T breast
LOX IMVI melanoma = test system: LOX IMVI melanoma
MDA-MB-231 breast = test system: MDA-MB-231 breast
IGROV1 ovarian = test system: IGROV1 ovarian
SK-MEL-28 melanoma = test system: SK-MEL-28 melanoma
SNB-19 CNS = test system: SNB-19 CNS
MCF7 breast = test system: MCF7 breast
PC-3 prostate = test system: PC-3 prostate
SK-MEL-5 melanoma = test system: SK-MEL-5 melanoma
A549 NSCLC = test system: A549 NSCLC
OVCAR-8 ovarian = test system: OVCAR-8 ovarian
NCI-H23 lung = test system: NCI-H23 lung
TK-10 renal = test system: TK-10 renal
HL-60(TB) leukemia = test system: HL-60(TB) leukemia
K-562 leukemia = test system: K-562 leukemia
SN12C renal = test system: SN12C renal
ACHN renal = test system: ACHN renal
OVCAR-5 ovarian = test system: OVCAR-5 ovarian
OVCAR-4 ovarian = test system: OVCAR-4 ovarian
UACC-62 melanoma = test system: UACC-62 melanoma
RXF 393 renal = test system: RXF 393 renal
BT-549 breast = test system: BT-549 breast
HOP-92 NSCLC = test system: HOP-92 NSCLC
NCI-H460 lung = test system: NCI-H460 lung
HCC-2998 colon = test system: HCC-2998 colon
MDA-N = test system: MDA-N
UO-31 renal = test system: UO-31 renal
UACC-257 melanoma = test system: UACC-257 melanoma
SK-OV-3 ovarian = test system: SK-OV-3 ovarian
MOLT-4 leukemia = test system: MOLT-4 leukemia
COLO 205 colon = test system: COLO 205 colon
DU-145 prostate = test system: DU-145 prostate

Measured: TGI

CC(C)(C)N=C(N)NC#N
> 100 µM: all assays above
